Results: US20240024291A1, “Uses of Dihydroorotate Dehydrogenase Inhibitors” (University of Maryland, Baltimore, priority 2022, published 2024)

How the values were obtained:
Mayo 6 = experiment: Approved Oncology Drugs Set screen alone and combined with DHODHi; conditions: for Alone (growth, drug alone): Mayo 6, drug alone; for Combination (growth, drug combined with DHODHi): Mayo 6, drug combined with DHODHi (10 μM)
Protocol: To identify potential small molecules that can synergize with DHODHi, the Approved Oncology Drugs Set (NIH Developmental Therapeutics Program) was screened alone and combined with DHODHi (10 μM) against Mayo 6.

Mayo 39 neurospheres = experiment: Sorafenib and DHODHi combination, SynergyFinder; type: cell-based, human; conditions: Mayo 39 GBMs
Mayo 6 neurospheres = experiment: Sorafenib and DHODHi combination, SynergyFinder
[1] = system: EGFRviii expressing 08-387 and 913 glioblastoma cells; experiment: Gemcitabine sensitization assay (Alamar blue); type: cell-based, human; conditions: varying dosages of gemcitabine and 0.05 nM of compound 1
Protocol: Ten thousand 08-387 or 913 glioblastoma cells per well were seeded in a 96 well plate. […] Post 72 hr of treatment, cell viability was calculated on Alamar blue absorbance reading.
To further evaluate the potential role of EGFR in compound 1 resistance, the 913 and 08-387 neurosphere lines were transduced with lentiviruses encoding EGFRvIll or GFP (as control) and these neurospheres were challenged with a relatively high dose of 1 mM compound 1.

| Structure (SMILES) | Alone (growth, drug alone) (Mayo 6) | Combination (growth, drug combined with DHODHi) (Mayo 6) | further results |
| --- | --- | --- | --- |
| C=CC(=O)Nc1cc(Nc2nccc(-c3cn(C)c4ccccc34)n2)c(OC)cc1N(C)CCN(C)C [Osimertinib, osimertinib] | 0.35 | 0.0001 |  |
| CNC(=O)c1cc(Oc2ccc(NC(=O)Nc3ccc(Cl)c(C(F)(F)F)c3)cc2)ccn1 [Sorafenib] |  |  | sensitization to DHODHi by Sorafenib (Mayo 39 neurospheres): moderately sensitized; most synergistic area score (Mayo 6 neurospheres; Mayo 6, Sorafenib in combination with DHODHi): 10.48; sensitization to DHODHi by Sorafenib (Mayo 6 neurospheres; Mayo 6 GBMs, SynergyFinder): moderately sensitized |
| CNC(=O)c1cc(Oc2ccc(NC(=O)Nc3ccc(Cl)c(C(F)(F)F)c3)c(F)c2)ccn1 [Regorafenib, regorafenib] | 1.00 | 0.64 |  |
| Nc1ccn([C@@H]2O[C@H](CO)[C@@H](O)C2(F)F)c(=O)n1 [gemcitabine, reference compound] |  |  | sensitivity of glioblastomas to gemcitabine [1]: sensitive |
